In ChEMBL document CHEMBL1201862, “PubChem BioAssay data set” (2004):
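Method: 48-hour compound exposure of cells in 96-well plates, five concentrations, linear interpolation of endpoints. GI50 = concentration required for 50% inhibition of growth.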 Activity calls are given as the source filed them. Cut-off read from the data, not from the text of the source: active = GI50 up to about 1.1 µM and inactive = higher.

Key:
Experiment in all cases: NCI anticancer screen, dose series, 48 h
COLO 205 = system: COLO 205
SK-OV-3 = system: SK-OV-3
HT-29 = system: HT-29
SN12C = system: SN12C
A549 = system: A549
EKVX = system: EKVX
SF-268 = system: SF-268
UACC-62 = system: UACC-62
NCI-H226 = system: NCI-H226
SF-295 = system: SF-295
CCRF-CEM = system: CCRF-CEM
MCF7 = system: MCF7
MDA-MB-231 = system: MDA-MB-231
Hs-578T = system: Hs-578T
TK-10 = system: TK-10
NCI-H522 = system: NCI-H522
SF-539 = system: SF-539
DU-145 = system: DU-145
U-251 = system: U-251
LXFL 529 = system: LXFL 529

Measured: GI50

Cc1c2cnccc2c(C)c2c1c1ccccc1n2CCOC(=O)c1ccccc1
inactive: COLO 205 7.8 µM | SK-OV-3 5.33 µM | HT-29 16.4 µM | SN12C 2.52 µM | A549 10.8 µM | EKVX 13.3 µM | SF-268 11.4 µM | UACC-62 11.9 µM | NCI-H226 12.6 µM | SF-295 11 µM | CCRF-CEM 7.52 µM | MCF7 9.64 µM | MDA-MB-231 38.9 µM | Hs-578T 30.1 µM | TK-10 11.2 µM | NCI-H522 11.4 µM | SF-539 6.21 µM | DU-145 25.6 µM | U-251 15.7 µM

O=C1CC(O)(c2ccccc2)C(c2ccccc2)=C1c1ccccc1 (stereo not given)
inactive: COLO 205 17.6 µM | SK-OV-3 > 100 µM | HT-29 42.8 µM | SN12C 38.6 µM | A549 39.1 µM | EKVX 40.9 µM | SF-268 37.7 µM | UACC-62 29.5 µM | SF-295 32.4 µM | CCRF-CEM 30.1 µM | LXFL 529 35.3 µM | TK-10 81.5 µM | NCI-H522 17.7 µM

C=C=C[P+](c1ccccc1)(c1ccccc1)c1ccccc1
inactive: COLO 205 2.57 µM | SK-OV-3 45.6 µM | SN12C 3.78 µM | A549 26.8 µM | SF-268 15.3 µM | CCRF-CEM 2.94 µM | LXFL 529 3.91 µM | TK-10 26.2 µM | NCI-H522 2.24 µM | SF-539 14.8 µM | U-251 3.56 µM

Cc1nc2ccncc2[nH]1
inactive: COLO 205 > 100 µM | HT-29 > 100 µM | SN12C > 100 µM | A549 > 100 µM | EKVX > 100 µM | SF-268 > 100 µM | UACC-62 > 100 µM | NCI-H226 > 100 µM | SF-295 > 100 µM | CCRF-CEM > 100 µM | LXFL 529 > 100 µM | TK-10 > 100 µM | SF-539 > 100 µM | U-251 > 100 µM

CSc1nc2c(nc(C)c(=O)n2C2OCC(OC(C)=O)C(OC(C)=O)C2OC(C)=O)c(=O)[nH]1 (stereo not given)
inactive: COLO 205 > 100 µM | SK-OV-3 > 100 µM | HT-29 > 100 µM | SN12C > 100 µM | A549 > 100 µM | EKVX > 100 µM | SF-268 > 100 µM | UACC-62 > 100 µM | SF-295 > 100 µM | CCRF-CEM > 100 µM | LXFL 529 > 100 µM | TK-10 > 100 µM | NCI-H522 > 100 µM | U-251 > 100 µM

O=C(c1ccc(NCN2C(=O)CCC2=O)cc1)c1ccc(NCN2C(=O)CCC2=O)cc1
inactive: COLO 205 > 100 µM | HT-29 > 100 µM | SN12C > 100 µM | A549 > 100 µM | EKVX > 100 µM | SF-268 > 100 µM | UACC-62 > 100 µM | SF-295 > 100 µM | CCRF-CEM > 100 µM | LXFL 529 > 100 µM | TK-10 > 100 µM | NCI-H522 > 100 µM | SF-539 > 100 µM | U-251 > 100 µM
